# In PubChem BioAssay AID328 (DTP/NCI, 2004):
# Where “and” joins values, the source holds several entries; their conditions need not be identical. Equal entries are not always repeated. Inconclusive results and toxic doses are left out.
# Test system: BDF1 mice, P388 leukemia ip, median survival T/C
# Assay: NCI In Vivo Anticancer Drug Screen. Data for tumor model P388 Leukemia (intraperitoneal) in B6D2F1 (BDF1) mice
# Details: endpoint: median survival time, higher = longer survival
# Procedure, shortened: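 T/C = treated-group survival ÷ vehicle-control survival; tumour transplanted into mice before dosing.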
# [1] = dose: 50.0 mg/kg/injection, schedule: Q01DX009 (ip), vehicle: saline with Tween-80
# [2] = dose: 100.0 mg/kg/injection, schedule: Q01DX009 (ip), vehicle: saline with Tween-80
smiles,measurement,setting,value
CO[C@H](C(=O)[C@@H](O)[C@@H](C)O)[C@@H]1Cc2cc3cc(OC4CC(OC5CC(O)C(O)C(C)O5)C(O)C(C)O4)c(C)c(O)c3c(O)c2C(=O)[C@H]1OC1CC(OC2CC(OC3CC(C)(O)C(O)C(C)O3)C(O)C(C)O2)C(O)C(C)O1 (some centres undefined),T/C,"dose: 0.05 mg/kg/injection, schedule: Q01DX009 (ip), vehicle: water",120 % of control and 110 % of control
same,T/C,"dose: 0.06 mg/kg/injection, schedule: Q01DX001 (ip), vehicle: water",100 % of control
same,T/C,"dose: 0.1 mg/kg/injection, schedule: Q01DX015 (ip), vehicle: water",100 % of control
same,T/C,"dose: 0.12 mg/kg/injection, schedule: Q01DX009 (ip), vehicle: clinical formulation",114 % of control
same,T/C,"dose: 0.12 mg/kg/injection, schedule: Q#A X005 (ip), vehicle: saline",118 % of control
same,T/C,"dose: 0.13 mg/kg/injection, schedule: Q01DX001 (ip), vehicle: water",100 % of control
same,T/C,"dose: 0.13 mg/kg/injection, schedule: Q01DX009 (ip), vehicle: saline",122 % of control
same,T/C,"dose: 0.19 mg/kg/injection, schedule: Q01DX010 (ip), vehicle: saline",110 % of control
same,T/C,"dose: 0.2 mg/kg/injection, schedule: Q01DX009 (ip), vehicle: water",150 % of control
same,T/C,"dose: 0.25 mg/kg/injection, schedule: Q01DX001 (im), vehicle: water",100 % of control
same,T/C,"dose: 0.25 mg/kg/injection, schedule: Q01DX001 (ip), vehicle: water",104 % of control
same,T/C,"dose: 0.25 mg/kg/injection, schedule: Q01DX005 (ip), vehicle: saline",100 % of control
same,T/C,"dose: 0.25 mg/kg/injection, schedule: Q01DX009 (ip), vehicle: clinical formulation",121 % of control
same,T/C,"dose: 0.25 mg/kg/injection, schedule: Q01DX010 (oral), vehicle: saline",100 % of control
same,T/C,"dose: 0.25 mg/kg/injection, schedule: Q01DX015 (ip), vehicle: water",115 % of control
same,T/C,"dose: 0.35 mg/kg/injection, schedule: Q01DX009 (ip), vehicle: water",150 % of control
same,T/C,"dose: 0.5 mg/kg/injection, schedule: Q01DX001 (im), vehicle: water",95 % of control
same,T/C,"dose: 0.5 mg/kg/injection, schedule: Q01DX001 (ip), vehicle: saline",100 % of control
same,T/C,"dose: 0.5 mg/kg/injection, schedule: Q01DX001 (ip), vehicle: water",110 % of control
same,T/C,"dose: 0.5 mg/kg/injection, schedule: Q01DX005 (ip), vehicle: saline",100 % of control
same,T/C,"dose: 0.5 mg/kg/injection, schedule: Q01DX009 (ip), vehicle: water",150 % of control
same,T/C,"dose: 0.5 mg/kg/injection, schedule: Q01DX010 (oral), vehicle: saline",100 % of control
same,T/C,"dose: 0.5 mg/kg/injection, schedule: Q02DX005 (ip), vehicle: water",90 % of control
same,T/C,"dose: 0.5 mg/kg/injection, schedule: Q04DX003 (ip), vehicle: saline",100 % of control
same,T/C,"dose: 0.54 mg/kg/injection, schedule: Q01DX005 (ip), vehicle: water",175 % of control
same,T/C,"dose: 0.65 mg/kg/injection, schedule: Q01DX009 (ip), vehicle: water",95 % of control
same,T/C,"dose: 0.65 mg/kg/injection, schedule: Q04DX003 (ip), vehicle: water",115 % of control
same,T/C,"dose: 0.75 mg/kg/injection, schedule: Q01DX010 (ip), vehicle: water",118 % of control
same,T/C,"dose: 1.0 mg/kg/injection, schedule: Q01DX001 (im), vehicle: water",108 % of control
same,T/C,"dose: 1.0 mg/kg/injection, schedule: Q01DX001 (ip), vehicle: saline",100 % of control and 109 % of control
same,T/C,"dose: 1.0 mg/kg/injection, schedule: Q01DX009 (ip), vehicle: clinical formulation",191 % of control
same,T/C,"dose: 1.0 mg/kg/injection, schedule: Q01DX009 (ip), vehicle: saline",94 % of control and 95 % of control
same,T/C,"dose: 1.0 mg/kg/injection, schedule: Q01DX010 (oral), vehicle: saline",100 % of control
same,T/C,"dose: 1.0 mg/kg/injection, schedule: Q04DX003 (ip), vehicle: saline",91 % of control and 118 % of control
same,T/C,"dose: 1.08 mg/kg/injection, schedule: Q04DX003 (ip), vehicle: water",113 % of control
same,T/C,"dose: 1.5 mg/kg/injection, schedule: Q01DX010 (ip), vehicle: saline",180 % of control
same,T/C,"dose: 1.5 mg/kg/injection, schedule: Q01DX010 (oral), vehicle: water",91 % of control
same,T/C,"dose: 1.8 mg/kg/injection, schedule: Q04DX003 (ip), vehicle: water",103 % of control
same,T/C,"dose: 2.0 mg/kg/injection, schedule: Q01DX001 (ip), vehicle: saline",118 % of control
same,T/C,"dose: 2.0 mg/kg/injection, schedule: Q01DX009 (ip), vehicle: saline",31 % of control
same,T/C,"dose: 2.0 mg/kg/injection, schedule: Q01DX010 (oral), vehicle: saline",100 % of control
same,T/C,"dose: 2.0 mg/kg/injection, schedule: Q01DX010 (oral), vehicle: water",91 % of control
same,T/C,"dose: 2.5 mg/kg/injection, schedule: Q01DX010 (oral), vehicle: water",91 % of control
same,T/C,"dose: 50.0 mg/kg/injection, schedule: Q01DX010 (ip), vehicle: water",100 % of control
same,T/C,"dose: 7.5 micrograms/kg/injection, schedule: Q03HX008 (ip), vehicle: saline",100 % of control
same,T/C,"dose: 7.5 micrograms/kg/injection, schedule: Q04DX024 (ip), vehicle: saline",95 % of control
same,T/C,"dose: 63.0 micrograms/kg/injection, schedule: Q01DX010 (ip), vehicle: saline",109 % of control
same,T/C,"dose: 94.0 micrograms/kg/injection, schedule: Q01DX010 (ip), vehicle: saline",100 % of control
same,T/C,"dose: 125.0 micrograms/kg/injection, schedule: Q01DX010 (ip), vehicle: saline",118 % of control
same,T/C,"dose: 188.0 micrograms/kg/injection, schedule: Q01DX010 (ip), vehicle: saline",113 % of control
same,T/C,"dose: 375.0 micrograms/kg/injection, schedule: Q01DX010 (ip), vehicle: saline",113 % of control
COC1OC(COS(=O)(=O)c2ccc(C)cc2)C2OC(C)(C)OC12 (centres undefined),T/C,"dose: 50.0 mg/kg/injection, schedule: Q01DX009 (ip), vehicle: Klucel (hydroxypropylcellulose) (HPC)",104 % of control
same,T/C,"dose: 100.0 mg/kg/injection, schedule: Q01DX009 (ip), vehicle: Klucel (hydroxypropylcellulose) (HPC)",90 % of control
same,T/C,"dose: 400.0 mg/kg/injection, schedule: Q01DX009 (ip), vehicle: Klucel (hydroxypropylcellulose) (HPC)",90 % of control
Cc1cc(N(CCO)CCO)c2cc3ccc4cccc5ccc(c2n1)c3c45,T/C,"dose: 25.0 mg/kg/injection, schedule: Q04DX003 (ip), vehicle: saline with Tween-80",98 % of control
same,T/C,"dose: 50.0 mg/kg/injection, schedule: Q04DX003 (ip), vehicle: saline with Tween-80",110 % of control
same,T/C,"dose: 100.0 mg/kg/injection, schedule: Q04DX003 (ip), vehicle: saline with Tween-80",93 % of control and 100 % of control
CC1OC(O[C@@H]2C=C3CC[C@@H]4[C@H](CC[C@]5(C)[C@@H](c6ccc(=O)oc6)CC[C@]45O)[C@@]3(C)CC2)C(O)C(O)C1O (some centres undefined),T/C,"dose: 2.5 mg/kg/injection, schedule: Q01DX010 (ip), vehicle: carboxymethylcellulose (CMC)",105 % of control
same,T/C,"dose: 5.0 mg/kg/injection, schedule: Q01DX010 (ip), vehicle: carboxymethylcellulose (CMC)",105 % of control
Cc1cccc(=O)n1CCC#N,T/C,"dose: 100.0 mg/kg/injection, schedule: Q04DX003 (ip), vehicle: saline",96 % of control
same,T/C,"dose: 200.0 mg/kg/injection, schedule: Q04DX003 (ip), vehicle: saline",96 % of control
same,T/C,"dose: 400.0 mg/kg/injection, schedule: Q04DX003 (ip), vehicle: saline",100 % of control
Cc1cc2nc3n(c2cc1C)C(C)(C)N=C(N)N3,T/C,[1],102 % of control
same,T/C,[2],112 % of control
COc1cc(OC)cc(C(=O)N2CC2)c1,T/C,"dose: 6.25 mg/kg/injection, schedule: Q04DX003 (ip), vehicle: water",105 % of control
same,T/C,"dose: 12.5 mg/kg/injection, schedule: Q04DX003 (ip), vehicle: water",98 % of control
same,T/C,"dose: 25.0 mg/kg/injection, schedule: Q04DX003 (ip), vehicle: water",105 % of control
same,T/C,"dose: 50.0 mg/kg/injection, schedule: Q04DX003 (ip), vehicle: water",96 % of control
same,T/C,"dose: 100.0 mg/kg/injection, schedule: Q04DX003 (ip), vehicle: water",107 % of control
same,T/C,"dose: 200.0 mg/kg/injection, schedule: Q01DX009 (ip), vehicle: water",100 % of control
same,T/C,"dose: 200.0 mg/kg/injection, schedule: Q04DX003 (ip), vehicle: water",100 % of control
same,T/C,"dose: 300.0 mg/kg/injection, schedule: Q01DX009 (ip), vehicle: water",105 % of control
same,T/C,"dose: 400.0 mg/kg/injection, schedule: Q01DX009 (ip), vehicle: water",91 % of control
Cc1ccc(Cl)cc1NC(=O)c1ccccc1C(=O)O,T/C,"dose: 100.0 mg/kg/injection, schedule: Q04DX003 (ip), vehicle: Klucel (hydroxypropylcellulose) (HPC)",91 % of control
same,T/C,"dose: 200.0 mg/kg/injection, schedule: Q04DX003 (ip), vehicle: Klucel (hydroxypropylcellulose) (HPC)",95 % of control
same,T/C,"dose: 400.0 mg/kg/injection, schedule: Q04DX003 (ip), vehicle: Klucel (hydroxypropylcellulose) (HPC)",91 % of control
O=C1/C(=C/c2ccc(Cl)cc2Cl)CCC/C1=C\c1ccc(Cl)cc1Cl,T/C,"dose: 25.0 mg/kg/injection, schedule: Q01DX009 (ip), vehicle: saline with Tween-80",88 % of control
same,T/C,[1],100 % of control
same,T/C,[2],88 % of control
